pIC50: −log10 of the molar value.
What was measured:
human GST-DYRK1A = target: T1, human GST-DYRK1A (Homo sapiens, UniProt Q13627); experiment: GST-DYRK1A enzyme inhibition, ADP-Glo kinase assay; format: biochemical; settings: ATP 10 μM, GST-DYRK1A full length, read-out: DYRK1 IC50
T1 construct: purified human GST-DYRK1A (full length, Thermo Scientifics) enzyme; purchased Thermo Scientifics
How it was run: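 Full-length human GST-DYRK1A (10 ng) with 10 μM ATP and specific substrate in 40 mM Tris-HCl pH 7.4, 20 mM MgCl2, 0.5 mg/mL BSA, 50 μM DTT, 1 h at 25 °C. ADP formation read by ADP-Glo luminescence relative to solvent control; IC50 from three data sets.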

IL-6 = experiment: Inhibition of LPS-induced IL-6 secretion of THP-1 monocytes (ELISA); format: cell-based, human; settings: Homo sapiens, THP-1; compound 0.5 μM, LPS 500 ng/mL, 24 hours; read-out: THP1/IL6 (% inhib)
How it was run: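 THP-1 monocytes grown 16 h at 37 °C, pretreated 1 h with compound at final 0.5 μM, then stimulated with LPS at final 500 ng/mL for 24 h. IL-6 and TNF-α in culture supernatant measured by ELISA (OD 450 nm).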

TTK = target: T2, TTK (Homo sapiens, UniProt P33981); experiment: TTK enzyme inhibition, ADP-Glo kinase assay; format: biochemical; parameters: purchased SignalChem T20-10G; settings: ATP 5 μM
T2 sequence (P33981 1-857): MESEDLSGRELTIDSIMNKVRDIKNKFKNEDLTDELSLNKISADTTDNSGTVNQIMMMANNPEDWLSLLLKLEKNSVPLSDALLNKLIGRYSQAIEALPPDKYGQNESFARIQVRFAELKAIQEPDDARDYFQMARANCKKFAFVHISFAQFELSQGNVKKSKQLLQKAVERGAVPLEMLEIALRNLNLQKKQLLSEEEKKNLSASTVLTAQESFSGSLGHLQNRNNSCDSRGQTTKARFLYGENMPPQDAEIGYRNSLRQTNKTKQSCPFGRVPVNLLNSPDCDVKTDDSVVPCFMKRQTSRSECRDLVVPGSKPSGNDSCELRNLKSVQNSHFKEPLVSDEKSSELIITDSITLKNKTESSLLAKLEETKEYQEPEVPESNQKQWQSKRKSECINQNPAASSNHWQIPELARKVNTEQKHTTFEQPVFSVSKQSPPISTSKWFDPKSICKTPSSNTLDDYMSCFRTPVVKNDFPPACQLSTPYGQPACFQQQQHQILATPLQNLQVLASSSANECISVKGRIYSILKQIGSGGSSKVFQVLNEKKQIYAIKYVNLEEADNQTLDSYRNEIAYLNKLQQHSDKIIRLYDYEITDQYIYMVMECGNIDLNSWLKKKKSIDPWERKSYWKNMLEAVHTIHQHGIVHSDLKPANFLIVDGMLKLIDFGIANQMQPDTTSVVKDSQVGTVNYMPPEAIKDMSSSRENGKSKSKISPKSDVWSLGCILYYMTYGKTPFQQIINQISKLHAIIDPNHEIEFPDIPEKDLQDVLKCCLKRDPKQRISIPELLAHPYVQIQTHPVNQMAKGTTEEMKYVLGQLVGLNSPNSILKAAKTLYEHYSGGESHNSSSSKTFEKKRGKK
How it was run: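 Purified human TTK (7.5 ng) was reacted with 5 μM ATP and 0.2 μg MBP substrate for 4 h at 25 °C in 40 mM Tris-HCl pH 7.4, 20 mM MgCl2, 0.1 mg/mL BSA, 50 μM DTT. ADP formation was read by ADP-Glo luminescence, and IC50 was taken relative to solvent control.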

| pIC50 (human GST-DYRK1A) | pIC50 (TTK) | Structure (SMILES) | inhibition at 0.5 µM (IL-6) [%] |
| --- | --- | --- | --- |
| > 7.00 | > 7.00 | CNc1nc(Nc2ccc(S(=O)(=O)N3CCC(N4CCOCC4)CC3)cc2OC)nc2[nH]cc(C(F)(F)F)c12 [Example 157, N^2-(2-methoxy-4-((4-morpholinopiperidin-1-yl)sulfonyl)phenyl)-N^4-methyl-5-(trifluoromethyl)-7H-pyrrolo[2,3-d]pyrimidine-2,4-diamine 2,2,2-trifluoroacetate] | 1.6 |
| > 7.00 | > 7.00 | CNc1nc(Nc2ccc(C(=O)N3CCC(N4CCOCC4)CC3)c3c2OCC3)nc2[nH]cc(C(F)(F)F)c12 [Example 217, (7-((4-(methylamino)-5-(trifluoromethyl)-7H-pyrrolo[2,3-d]pyrimidin-2-yl)amino)-2,3-dihydrobenzofuran-4-yl)(4-morpholinopiperidin-1-yl)methanone] | 23.4 |
| > 7.00 | > 7.00 | CNc1nc(Nc2ccc(S(=O)(=O)N3CCC(N4CCOCC4)CC3)c3c2OCCO3)nc2[nH]cc(C(F)(F)F)c12 [Example 219, N^4-methyl-N^2-(8-((4-morpholinopiperidin-1-yl)sulfonyl)-2,3-dihydrobenzo[b][1,4]dioxin-5-yl)-5-(trifluoromethyl)-7H-pyrrolo[2,3-d]pyrimidine-2,4-diamine] | 10.9 |
| > 7.00 | > 7.00 | COCCNc1nc(Nc2ccc(C(=O)N3CCC(N4CCOCC4)CC3)c3c2OCC3)nc2[nH]cc(C#N)c12 [Example 359, 4-((2-methoxy-ethyl)ami-no)-2-((4-(4-morpholino-piperidine-1-carbonyl)-2,3-dihydro-benzofuran-7-yl)amino)-7H-pyrrolo[2,3-d]pyrimidine-5-carbonitrile] | 32 |
| 6.00 to 6.52 | > 7.00 | C=CCNc1nc(Nc2ccc(S(=O)(=O)N3CCC(N4CCOCC4)CC3)cc2OC)nc2[nH]cc(C#N)c12 [Example 361, 4-(allylamino)-2-((2-methoxy-4-((4-morpholino-piperidin-1-yl)sulfonyl)phenyl)amino)-7H-pyrrolo[2,3-d]pyrimidine-5-carbonitrile] | 21.7 |
| 6.52 to 7.00 | > 7.00 | CNc1nc(Nc2ccc(C(=O)N3CCN(C4COC4)CC3)c3c2OCCO3)nc2[nH]cc(C(F)(F)F)c12 [Example 397, (8-((4-(methylamino)-5-(trifluoromethyl)-7H-pyrrolo[2,3-d]pyrimidin-2-yl)amino)-2,3-dihydrobenzo[b] [1,4]dioxin-5-yl) (4-(oxetan-3-yl)piperazin-1-yl)methanone] | 32 |
| > 7.00 | > 7.00 | COCCNc1nc(Nc2ccc(C(=O)N3CCN(C4COC4)CC3)c3c2OCCO3)nc2[nH]cc(C(F)(F)F)c12 [Example 403, (8-((4-((2-methoxyethyl)-amino)-5-(trifluoromethyl)-7H-pyrrolo[2,3-d]pyrimidin-2-yl)amino)-2,3-dihydrobenzo[b] [1,4]dioxin-5-yl) (4-(oxetan-3-yl)piperazin-1-yl)methanone] | 30.1 |
| > 7.00 | > 7.00 | O=C(c1ccc(Nc2nc(NC3CCCC3)c3c(C(F)(F)F)c[nH]c3n2)c2c1OCCO2)N1CCN(C2COC2)CC1 [Example 414, (8-((4-(cyclopentyl-amino)-5-(trifluoromethyl)-7H-pyrrolo[2,3-d]pyrimidin-2-yl)amino)-2,3-dihydrobenzo[b] [1,4]dioxin-5-yl) (4-(oxetan-3-yl)piperazin-1-yl)methanone] | 47.3 |
| 6.00 to 6.52 | > 7.00 | CCNc1nc(Nc2ccc(S(=O)(=O)N3CCC(N4CCOCC4)CC3)c3c2OCCO3)nc2[nH]cc(C(F)(F)F)c12 [Example 430, N^4-ethyl-N^2-(8-((4-morpholino-piperidin-1-yl)sulfonyl)-2,3-dihydro-benzo[b][1,4]dioxin-5-yl)-5-(trifluoromethyl)-7H-pyrrolo[2,3-d]pyrimidine-2,4-diamine] | 21 |
| > 7.00 | > 7.00 | O=C(c1ccc(Nc2nc(NC3CC3)c3c(C(F)(F)F)c[nH]c3n2)c2c1CCO2)N1CCC(N2CCOCC2)CC1 [Example 434, (7-((4-(cyclopropyl-amino)5-(trifluoromethyl)-7H-pyrrolo[2,3-d]pyrimidin-2-yl)amino)-2,3-dihydrobenzo-furan-4-yl)(4-morpho-linopiperidin-1-yl)methanone] | 34.1 |
| > 7.00 | > 7.00 | COc1cc(P2(=O)CCN(C3CCOCC3)CC2)ccc1Nc1nc(NC2CC2)c2c(C(F)(F)F)c[nH]c2n1 [Example 435, 4-(4-((4-(cyclo-propylamino)-5-(trifluoromethyl)-7H-pyrrolo[2,3-d]pyrimidin-2-yl)amino)-3-methoxyphenyl)-1-(tetrahydro-2H-pyran-4-yl)-1,4-azaphosphinane 4-oxide] | 22.2 |
| > 7.00 | > 7.00 | CCNc1nc(Nc2ccc(C(=O)N3CCC(N4CCOCC4)CC3)c3c2OCC3)nc2[nH]cc(C(F)(F)F)c12 [Example 438, (7-((4-(ethylamino)-5-(trifluoromethyl)-7H-pyrrolo[2,3-d]pyrimidin-2-yl)amino)-2,3-dihydrobenzo-furan-4-yl)(4-morpho-linopiperidin-1-yl)methanone] | 25.8 |
| > 7.00 | > 7.00 | COCCNc1nc(Nc2ccc(C(=O)N3CCC(N4CCOCC4)CC3)c3c2OCC3)nc2[nH]cc(C(F)(F)F)c12 [Example 443, (7-((4-((2-methoxyethyl)amino)-5-(trifluoromethyl)-7H-pyrrolo[2,3-d]pyrimidin-2-yl)amino)-2,3-dihydrobenzo-furan-4-yl)(4-morpho-linopiperidin-1-yl)methanone] | 4.6 |
| > 7.00 | > 7.00 | CCCNc1nc(Nc2ccc(C(=O)N3CCC(N4CCOCC4)CC3)c3c2OCC3)nc2[nH]cc(C(F)(F)F)c12 [Example 446, (4-morpholino-piperidin-1-yl)(7-((4-(propylamino)-5-(trifluoromethyl)-7H-pyrrolo[2,3-d]pyrimidin-2-yl)amino)-2,3-dihydrobenzo-furan-4-yl)methanone] | 17.3 |
| > 7.00 |  | O=C(c1ccc(Nc2nc(NCC3CC3)c3c(C(F)(F)F)c[nH]c3n2)c2c1CCO2)N1CCC(N2CCOCC2)CC1 [Example 461, (7-((4-((cyclo-propylmeth-yl)amino)-5-(trifluoromethyl)-7H-pyrrolo[2,3-d]pyrimidin-2-yl)amino)-2,3-dihydrobenzo-furan-4-yl)(4-morpho-linopiperidin-1-yl)methanone] | 25.7 |
| > 7.00 | > 7.00 | CCNc1nc(Nc2ccc(C(=O)N3CCC(N4C[C@@H]5C[C@H]4CO5)CC3)c3c2OCC3)nc2[nH]cc(C(F)(F)F)c12 [Example 468] | 22.4 |
|  | > 7.00 | COc1cc(S(=O)(=O)N2CCC(N3C[C@H]4C[C@@H]3CO4)CC2)ccc1Nc1nc(C2CC2)c2c(C(F)(F)F)c[nH]c2n1 [Example 473, N-(4-((4-((1R,4R)-2-oxa-5-azabicyclo[2.2.1]heptan-5-yl)piperidin-1-yl)sulfonyl)-2-methoxyphenyl)-4-cyclopropyl-5-(trifluoromethyl)-7H-pyrrolo[2,3-d]pyrimidin-2-amine] | 31 |
| > 7.00 |  | CCNc1nc(Nc2ccc(C(=O)N3CC[C@H](N4CCOCC4)C3)c3c2OCC3)nc2[nH]cc(C(F)(F)F)c12 [Example 475, (S)-(7-((4-(ethylamino)-5-(trifluoromethyl)-7H-pyrrolo[2,3-d]pyrimidin-2-yl)amino)-2,3-dihydrobenzo-furan-4-yl)(3-morpholino-pyrrolidin-1-yl)methanone] | 42.5 |
